Test [1] relates to immature female rat. The test is described as follows: immature female rat uterotrophic growth assay, antiestrogen assay. The test is classed as in vivo. Conditions: 1 nM estradiol. The procedure:
(§1) These trifluoromethyl substituted compounds were also studied with an immature female rat uterotrophic growth assay; the results are shown in FIGS. 12, 13, and 14. […] Therefore, the agonist responses observed in the in vitro cell proliferation assay were carried over to the intact animal as well. The antiestrogen assay evaluated the ability of the isomers to block the uterotrophic effect induced by 1 nM estradiol. […] Therefore, in both estrogen responsive cells and tissues these new ligands are producing differential responses in affinity and efficacy related to the site of trifluoromethyl substitution on the phenyl ring.

The test system of test [2] is immature female rat. The test is described as follows: immature female rat uterotrophic growth assay, estrogenic assay. Format: in vivo. As for the experimental part:
as §1

Test [3] concerns MCF-7 cells. Briefly: proliferation assay of MCF-7 cells. The test is classed as cell-based. The settings on record: for effect on the proliferative response to estradiol: ligand added in the presence of 1 nM estradiol; for ability of the ligand to stimulate the proliferation of MCF-7 cells: ligand alone. From the text:
Trifluoromethyl group was introduced onto phenylvinyl estradiol either at the ortho, meta, or para positions. These compounds were examined for their ability to stimulate or inhibit estrogen responses in two assay systems. […] The meta- and para-isomers gave substantially different profiles. […] Therefore, the position of the trifluoromethyl group exerted a significant effect on the efficacy of the ligand.

Take `CC12CCC3c4ccc(O)cc4CCC3C1CCC2(O)C=Cc1ccccc1C(F)(F)F` (stereo not drawn) [Compound 4a, 17α-20E-21-(2-Trifluoromethylphenyl)-19-norpregna-1,3,5(10),20-tetraene-3,17β-diol]: in test [1] (isomer at 10 and 100 nM), the “ability to block the uterotrophic effect induced by estradiol” value (from here on “ability … by estradiol”) is listed as “enhancement of the estrogenic response”. Moreover, the “estrogenic effect (uterotrophic growth)” value in test [2] (3 nM level) is given as “effect comparable to estradiol”; in test [2] (10 and 100 nM) it was “substantial estrogenic effects”. Moreover, the “effect on the proliferative response to estradiol” value (“effect … to estradiol” for short) in test [3] was “neither an enhancement nor a diminution of the proliferative response”. In addition, the “ability of the ligand to stimulate the proliferation of MCF-7 cells” value (from here on “ability of the ligand”) in test [3] is given as “full agonist response comparable to that of estradiol”.
As for `CC12CCC3c4ccc(O)cc4CCC3C1CCC2(O)C=Cc1ccc(C(F)(F)F)cc1` (stereo not drawn) [Compound 6a, 17α-20E-21-(4-Trifluoromethylphenyl)-19-norpregna-1,3,5(10),20-tetraene-3,17β-diol], the “ability … by estradiol” value in test [1] (isomer at 100 nM) is “reduced the estrogenic response”. For the same compound, the “estrogenic effect (uterotrophic growth)” value in test [2] (10 and 100 nM) is given as “little or no estrogenic effects”. In addition, in test [3], the “effect … to estradiol” value was “decreases in the estradiol effects were observed below 1 nM” and the “ability of the ligand” value is listed as “did not elicit a proliferative response until a 10 nM dose was employed”.
As for `CC12CCC3c4ccc(O)cc4CCC3C1CCC2(O)C=Cc1cccc(C(F)(F)F)c1` (stereo not drawn) [Compound 5a, 17α-20E-21-(3-Trifluoromethylphenyl)-19-norpregna-1,3,5(10),20-tetraene-3,17β-diol], in test [1] (isomer at 10 and 100 nM), the “ability … by estradiol” value is given as “no significant effect on the estradiol response”. The “estrogenic effect (uterotrophic growth)” value in test [2] (10 and 100 nM) is “little or no estrogenic effects”. In test [3], the “effect … to estradiol” value is “antagonized the effects of estradiol at the same doses” and the “ability of the ligand” value is on record as “weak proliferative effect at doses greater than 1 nM”.

Values taken from patent publication US8173628B2, “Steroidal antiestrogens and antiandrogens and uses thereof” (Northeastern University, priority 2000, dated 2012).
